Here are results for 60 compounds from patent US20250170126A1 (MITSUBISHI TANABE PHARMA CORPORATION, priority 2022, published 2025).

Structures are written as SMILES.

By IC50 is commonly meant the concentration needed to halve the response being measured. A low value points to greater potency in that assay.

The assay deals with Human B0AT1 (Homo sapiens (Human), UniProt Q695T7). Put plainly: hB0AT1 inhibitory test (phenylalanine uptake). Particulars: Human B0AT1 stable expression CHO cells; [3H]-L-phenylalanine uptake, phenylalanine 0.25 mM. The format is cell-based. As for the experimental part: A test compound dissolved in dimethyl sulfoxide (DMSO) was added to a 96 well plate for solid phase radioactivity measurement containing a scintillator at the bottom of the well (final concentration of DMSO 0.5%). DMSO alone as a control and DMSO containing N-(4-bromophenyl)-3,5-dichloro-2-hydroxybenzamide (final concentration […]) for the is measurement of B0AT1 non-specific uptake were similarly added at 0.5 μL per well. Human B0AT1 stable expression CHO cells suspended in a buffer (buffer containing 96 mM sodium chloride, 2 mM potassium chloride, 1.8 mM calcium chloride, 1 mM magnesium chloride, 0.01% bovine serum albumin, and 10 mM 2-[4-(2-hydroxyethyl)-1-piperazinyl]ethanesulfonic acid) were added by 90 μL to 75000 cells/well. After standing at ordinary temperature for 30 min or longer, the cells were subjected to a phenylalanine uptake experiment. A buffer containing L-phenylalanine and [3,4,5-3H]-L-phenylalanine was added by 10 μL per well (final concentration of phenylalanine 0.25 mM), and the radioactivity of the plate bottom surface at ordinary temperature was measured with a scintillation counter over time, and the radioactivity value after 100 to 200 min was analyzed. A value obtained by subtracting the B0AT1 non-specific uptake from the control uptake was taken as 100%, and the concentration necessary for each test compound to achieve 50% inhibition (IC50 value) was determined by nonlinear regression using a logistic model.
Human B0AT1, sequence (Q695T7 whole entry): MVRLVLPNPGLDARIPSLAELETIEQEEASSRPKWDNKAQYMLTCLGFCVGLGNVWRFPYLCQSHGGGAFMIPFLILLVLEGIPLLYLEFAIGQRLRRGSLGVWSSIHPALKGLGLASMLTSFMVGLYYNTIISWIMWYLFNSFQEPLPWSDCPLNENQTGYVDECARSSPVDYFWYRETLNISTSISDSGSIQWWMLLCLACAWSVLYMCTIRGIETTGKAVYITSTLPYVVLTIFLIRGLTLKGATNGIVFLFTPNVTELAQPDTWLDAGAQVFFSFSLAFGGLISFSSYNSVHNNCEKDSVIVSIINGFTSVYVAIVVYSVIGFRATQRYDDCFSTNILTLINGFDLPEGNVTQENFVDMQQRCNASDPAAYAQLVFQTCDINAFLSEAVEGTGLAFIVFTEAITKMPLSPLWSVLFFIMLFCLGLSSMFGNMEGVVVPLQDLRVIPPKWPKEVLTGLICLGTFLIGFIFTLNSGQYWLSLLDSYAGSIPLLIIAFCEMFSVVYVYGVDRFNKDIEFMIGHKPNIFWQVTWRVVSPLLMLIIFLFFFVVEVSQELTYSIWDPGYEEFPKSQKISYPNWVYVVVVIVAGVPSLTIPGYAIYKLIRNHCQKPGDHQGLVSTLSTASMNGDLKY
As for `O=C(/C=C/c1ccc(C(F)(F)F)cc1)NCC(=O)N1CCn2nc(C(=O)O)c(C3CCCCC3)c2C1` [I-266], the IC50 worked out at 0.133 µM.
As to `Cc1nnc([C@H]2CN(C(=O)CNC(=O)/C=C/c3ccc(C(F)(F)F)cc3)CCN2C)o1` [I-131, (E)-N-[2-[(3R)-4-methyl-3-(5-methyl-1,3,4-oxadiazol-2-yl)piperazin-1-yl]-2-oxoethyl]-3-[4-(trifluoromethyl)phenyl]prop-2-enamide], 1.93 µM corresponded to half-maximal inhibition (IC50).
For `Cn1ncc2c1CN(C(=O)CNC(=O)/C=C/c1ccc(C(F)(F)F)cc1)C2` [I-66] the value was 0.122 µM.
For `CC1CN(C)CCN1C(=O)CNC(=O)/C=C/c1ccc(C(F)(F)F)cc1` (stereo not drawn) [I-119, (E)-N-[2-(2,4-dimethylpiperazin-1-yl)-2-oxoethyl]-3-[4-(trifluoromethyl)phenyl]prop-2-enamide] the value was 0.03 µM; for `CNC(=O)c1nn2c(c1Br)CN(C(=O)CNC(=O)/C=C/c1ccc(C(F)(F)F)cc1)CC2` [I-279], 0.071 µM; for `CN(CCS(C)(=O)=O)C(=O)CNC(=O)/C=C/c1ccc(C(F)(F)F)cc1` [I-46], 0.181 µM.
For `O=C(/C=C/c1ccc(C(F)(F)F)cc1)NCC(=O)N1CCc2nnccc2C1` [I-99] the value was 0.064 µM.
As to `CNC(=O)[C@H]1CN(C)CCN1C(=O)CNC(=O)/C=C/c1ccc(C(F)(F)F)cc1` [I-139, (2R)-N,4-dimethyl-1-[2-[[(E)-3-[4-(trifluoromethyl)phenyl]prop-2-enoyl]amino]acetyl]piperazine-2-carboxamide], half-maximal inhibition (IC50) required 0.133 µM.
`CN1CCCN(C(=O)CNC(=O)/C=C/c2ccc(C(F)(F)F)cc2)CC1` [I-3] had an IC50 of 0.04 µM.
Compound `O=C(/C=C/c1ccc(OC(F)F)cc1)NCC(=O)N1CCn2nccc2C1` [I-89] yielded an IC50 of 0.094 µM.
The compound `CC(C)CNC(=O)C1CN(C(=O)CNC(=O)/C=C/c2ccc(C(F)(F)F)cc2)Cc2ccccc21` (stereo not drawn) [I-278, N-(2-methylpropyl)-2-[2-[[(E)-3-[4-(trifluoromethyl)phenyl]prop-2-enoyl]amino]acetyl]-3,4-dihydro-1H-isoquinoline-4-carboxamide] displayed an IC50 of 0.087 µM.
`CN1CCN(C(=O)CNC(=O)/C=C/c2ccc(-c3cc(F)c(F)c(F)c3)cc2)CC1` [I-127]: the IC50 came out at 0.088 µM.
With `N#Cc1cccc2c1CCN(C(=O)CNC(=O)/C=C/c1ccc(C(F)(F)F)cc1)C2` [I-192], the IC50 was found to be 0.03 µM.
In the case of `O=C(/C=C/c1ccc(C(F)(F)F)cc1)NCC(=O)N1CCC(c2cccnc2)C1` (stereo not drawn) [I-71], it took 1.33 µM to reach half-maximal inhibition (IC50).
For `O=C(/C=C/c1ccc(C(F)(F)F)cc1)NCC(=O)N1CCc2ncsc2C1` [I-34], the IC50 amounted to 0.021 µM.
Take `NS(=O)(=O)c1ccc2c(c1)CN(C(=O)CNC(=O)/C=C/c1ccc(C(F)(F)F)cc1)CC2` [I-189]: the IC50 turned out to be 0.035 µM.
Turning to `COCCN(Cc1ccncn1)C(=O)CNC(=O)/C=C/c1ccc(C(F)(F)F)cc1` [I-54], inhibition was half-maximal at 0.438 µM (IC50).
Regarding `CCN(CCOC)C(=O)CNC(=O)/C=C/c1ccc(C(F)(F)F)cc1` [I-5], the midpoint of inhibition, the IC50, lay at 0.262 µM.
Consider `CN1CCN(C(=O)CNC(=O)/C=C/c2ccc(-c3ccccc3)cc2)CC1` [I-103, (E)-N-[2-(4-methylpiperazin-1-yl)-2-oxoethyl]-3-(4-phenylphenyl) prop-2-enamide], for which the IC50 is 0.031 µM.
Turning to `O=C(/C=C/c1ccc(C(F)(F)F)cc1)NCC(=O)N1CCCn2nccc21` [I-86], the IC50 turned out to be 0.023 µM.
The result for `COCCN(CC1CCCO1)C(=O)CNC(=O)/C=C/c1ccc(C(F)(F)F)cc1` (stereo not drawn) [I-48] reads 0.536 µM.
Compound `CC(=O)N[C@H]1CCN(C(=O)CNC(=O)/C=C/c2ccc(C(F)(F)F)cc2)C1` [I-143, (E)-N-[2-[(3S)-3-acetamidopyrrolidin-1-yl]-2-oxoethyl]-3-[4-(trifluoromethyl)phenyl]prop-2-enamide] yielded an IC50 of 0.55 µM.
With `O=C(/C=C/c1ccc(C(F)(F)F)cc1)NCC(=O)N1CCN2C(=O)OC[C@H]2C1` [I-32], it took 0.212 µM to reach half-maximal inhibition (IC50).
Regarding `CCc1nnc(CN(CC2(F)CC2)C(=O)CNC(=O)/C=C/c2ccc(C(F)(F)F)cc2)o1` [I-211], the IC50 was found to be 0.061 µM.
Regarding `O=C(/C=C/c1ccc(C(F)(F)F)cc1)NCC(=O)N1Cc2cccnc2C1` [I-65], the IC50 was determined as 0.07 µM.
In turn, `CN1CCN(C(=O)CNC(=O)/C=C/c2ccc(C(F)(F)F)cc2)[C@H](C(=O)O)C1` [I-123, (2S)-4-methyl-1-[2-[[(E)-3-[4-(trifluoromethyl)phenyl]prop-2-enoyl]amino]acetyl]piperazine-2-carboxylic acid] registered an IC50 of 0.175 µM.
The result for `CCOCCN(CCOCC)C(=O)CNC(=O)/C=C/c1ccc(C(F)(F)F)cc1` [I-10] reads 0.803 µM; that for `O=C(/C=C/c1ccc(C(F)(F)F)cc1)NCC(=O)N1CCc2[nH]nnc2C1` [I-98], 0.078 µM.
`O=C(/C=C/c1ccc(C(F)(F)F)cc1)NCC(=O)N1CCn2ncc(Cl)c2C1` [I-202]: the IC50 was found to be 0.022 µM.
In turn, `NC(=O)c1ccc2c(c1)CCN(C(=O)CNC(=O)/C=C/c1ccc(C(F)(F)F)cc1)C2` [I-281] returned an IC50 of 0.021 µM.
Compound `O=C(/C=C/c1ccc(C(F)(F)F)cc1)NCC(=O)N1CCn2nc(C(=O)O)c(Br)c2C1` [I-269] registered an IC50 of 0.145 µM.
For `CN1CCN(C(=O)CNC(=O)/C=C/c2ccc(-c3ccc(C(F)(F)F)cc3)cc2)CC1` [I-128] the value was 0.678 µM; for `CN1CCN(C(=O)CNC(=O)/C=C/c2ccc(OC(F)(F)F)cc2)CC1=O` [I-118], 0.137 µM; for `O=C(/C=C/c1ccc(C(F)(F)F)cc1)NCC(=O)N1CCc2n[nH]c(=O)cc2C1` [I-81], 0.053 µM.
For `O=C(/C=C/c1ccc(C(F)(F)F)cc1)NCC(=O)N1CCn2nc(C(F)(F)F)nc2C1` [I-172] the value was 0.044 µM; for `CCCCOc1ccc(/C=C/C(=O)NCC(=O)N2CCN(C)CC2)cc1` [I-113], 0.178 µM.
On to `CC(C)N1CCN(C(=O)CNC(=O)/C=C/c2ccc(C(F)(F)F)cc2)CC1` [I-24], for which the IC50 came to 0.058 µM.
For the compound `CC1CN(C(=O)CNC(=O)/C=C/c2ccc(C(F)(F)F)cc2)Cc2ccccc21` (stereo not drawn) [I-182], 0.168 µM corresponded to half-maximal inhibition (IC50).
The result for `O=C(/C=C/c1ccc(C(F)(F)F)cc1)NCC(=O)N1CCc2nc(C(=O)O)ccc2C1` [I-263] reads 0.2 µM; that for `CO[C@H]1CCN(C(=O)CNC(=O)/C=C/c2ccc(C(F)(F)F)cc2)C1` [I-60], 0.918 µM; that for `O=C(/C=C/c1ccc(S(F)(F)(F)(F)F)cc1)NCC(=O)N1CCn2nc(C(=O)O)cc2C1` [I-272], 0.141 µM.
`O=C(/C=C/c1ccc(C(F)(F)F)cc1)NCC(=O)N1CCN2C(=O)NCC2C1` (stereo not drawn) [I-44]: it took 0.261 µM to reach half-maximal inhibition (IC50).
Compound `O=C(/C=C/c1ccc(C(F)(F)F)cc1)NCC(=O)N1CCc2c(ccc(C(=O)O)c2F)C1` [I-261, 5-fluoro-2-[2-[[(E)-3-[4-(trifluoromethyl)phenyl]prop-2-enoyl]amino]acetyl]-3,4-dihydro-1H-isoquinoline-6-carboxylic acid] showed an IC50 of 0.223 µM.
For `O=C(/C=C/c1ccc(C(F)(F)F)cc1)NCC(=O)N1CC[C@H](O)C1` [I-18] the value was 1.66 µM.
As to `CC(O)c1cc2n(n1)CCN(C(=O)CNC(=O)/C=C/c1ccc(C(F)(F)F)cc1)C2` (stereo not drawn) [I-208], the IC50 was 0.05 µM.
The result for `O=C(/C=C/c1ccc(C(F)(F)F)cc1)NCC(=O)N1CCn2cncc2C1` [I-23] reads 0.112 µM.
Consider `COCCN(Cc1ncc(C)s1)C(=O)CNC(=O)/C=C/c1ccc(C(F)(F)F)cc1` [I-56], for which the IC50 was found to be 0.067 µM.
`COCC1Cn2ncnc2CN1C(=O)CNC(=O)/C=C/c1ccc(C(F)(F)F)cc1` (stereo not drawn) [I-219] returned an IC50 of 0.262 µM.
In turn, `O=C(/C=C/c1ccc(C(F)(F)F)cc1)NCC(=O)N1CCc2nc[nH]c2C1` [I-75] registered an IC50 of 0.099 µM.
The result for `CCOC(=O)N1CCN(C(=O)CNC(=O)/C=C/c2ccc(C(F)(F)F)cc2)CC1` [I-27] reads 0.72 µM; that for `O=C(/C=C/c1ccc(C(F)(F)F)cc1)NCC(=O)N1CCn2cc(C(F)(F)F)nc2C1` [I-37], 0.091 µM.
`Cc1noc([C@@H]2CCN(C(=O)CNC(=O)/C=C/c3ccc(C(F)(F)F)cc3)C2)n1` [I-69] gave an IC50 of 1.47 µM.
The result for `O=C(/C=C/c1ccc(C(F)(F)F)cc1)NCC(=O)N1CCn2nc(C(=O)O)c(-c3ccc(C(F)(F)F)cc3)c2C1` [I-265] reads 0.066 µM.
The result for `Cn1cnc2c1CN(C(=O)CNC(=O)/C=C/c1ccc(C(F)(F)F)cc1)C2` [I-67] reads 0.141 µM; that for `O=C(/C=C/c1ccc(S(F)(F)(F)(F)F)cc1)NCC(=O)N1CCc2cc(C(=O)O)ccc2C1` [I-276, 2-[2-[[(E)-3-[4-(pentafluoro-A6-sulfanyl)phenyl]prop-2-enoyl]amino]acetyl]-3,4-dihydro-1H-isoquinoline-6-carboxylic acid], 0.087 µM.
The result for `O=C(/C=C/c1ccc(C(F)(F)F)cc1)NCC(=O)N1CCn2c(n[nH]c2=O)C1` [I-38] reads 0.046 µM; that for `O=C(/C=C/c1ccc(C(F)(F)F)cc1)NCC(=O)N1CCC(n2cccn2)CC1` [I-73], 0.228 µM; that for `O=C(/C=C/c1ccc(C(F)(F)F)cc1)NCC(=O)N1CCCc2cnccc21` [I-186], 0.01 µM.
Consider `CNC(=O)c1nc2n(n1)CCN(C(=O)CNC(=O)/C=C/c1ccc(C(F)(F)F)cc1)C2` [I-205], for which the IC50 is 0.088 µM.
The result for `COc1nccc2c1CN(C(=O)CNC(=O)/C=C/c1ccc(C(F)(F)F)cc1)CC2` [I-91] reads 0.036 µM.
